Data on 8 compounds can be found in patent US8507562B2, “Synthesis of (1)-beta-elemene, (-)-beta-elemenal, (-)-beta-elemenol, (-)-beta-elemene fluoride and their analogues, intermediates, and composition and uses thereof” (HYWE Pharmaceuticals, Inc., priority 2004, dated 2013).

For one assay, the system named is STTG1 brain tumor. Briefly: MTT survival assay. Type of assay: cell-based, human. Conditions: Homo sapiens, read-out: IC50. Background: Tetrazolium assays rely on reduction of a dye to a coloured formazan, in cell work by metabolically active cells.
The next assay deals with U-87 brain tumor. Briefly: MTT survival assay. In kind it is cell-based, human. Conditions: Homo sapiens, read-out: IC50.
The subject of a further assay is A-172 brain tumor. Briefly: MTT survival assay. In kind it is cell-based, human. As to conditions: Homo sapiens, A 172, read-out: IC50.
In a further assay the test system is H-460 lung cancer. Briefly: MTT survival assay. Type of assay: cell-based, human. As to conditions: 2 × 10^4 cells/ml.
The subject of the next assay is A549 lung cancer. Nature of the assay: MTT survival assay. Conditions: 2 × 10^4 cells/ml.
The test system of the next assay is human liver cancer QGY. As to conditions: 30 mg/kg/time ip × 7 qd.
In assay [1] the test system is human prostate cancer PC-3M. As to conditions: 30 mg/kg/time ip × 7 qd.
In the next assay the test system is human colon cancer HCT-8. As to conditions: 30 mg/kg/time ip × 7 qd.
In assay [2] the test system is human breast cancer Bcap-37. Conditions: 30 mg/kg/time ip × 7 qd.
Assay [3] has as its system human breast cancer ao10/17. Conditions: 30 mg/kg/time ip × 7 qd.
The next assay deals with human lung cancer A549. As to conditions: 30 mg/kg/time ip × 7 qd.
The next assay has as its system human glioma cells. Nature of the assay: MTT assay, elemene analogs. In kind it is cell-based. As to conditions: Homo sapiens, Glioma cell.
In assay [4] the test system is Colon Cancer Cells HCT-15. Briefly: MTS cell viability assay. As to conditions: combinations with Elemene 160 μg/ml, n = 8.
Method: (§3) Cells were maintained at 37° C. in a humidified atmosphere including 5% CO2. […] Drugs were dissolved in 100% DMSO and then diluted in medium for experiments.
Assay [5] has as its system Colon Cancer Cells HCT-116. Briefly: MTS cell viability assay. In kind it is cell-based, human. As to conditions: combinations with Elemene 160 μg/ml, n = 8.
For assay [6], the system named is Colon Cancer Cells Colo 205. Nature of the assay: MTS cell viability assay. Conditions: Colo 205, drug alone.
Method: as §3
Assay [7] deals with human glioma SHG44 (xenograph in brain). Nature of the assay: Tumor xenographed in mice brain, survival. In kind it is in vivo, nude mice. Conditions: 5 mg/kg/time ip × 7 qd. The method, then: (§1) Mice model with tumor xenographed in mice brain: Glioma cell line G-422 or SHG44 (log phase) were diluted to 2×10^7/ml in cell culture hood (no bacteria environment). Each mouse was injected with 0.05 ml of tumor cell in its brain. […] The survival time of these mice was recorded in the next 30 days. The life extension was calculated using the following formula: Life Extension Rate=[( […])/Average survival days of control group[×100 Results: […]

Assay [8] deals with human glioma SHG-44G (xenograph under skin). Nature of the assay: Xenograph under skin, injection directly into tumor. Type of assay: in vivo, nude mice. Conditions: listed as printed Pos. Cont. VM-26: 60 mg/kg it × 10 qd. The source says: (§2) The mice were killed after 3 weeks.
Nude mice grew on the cengliu rack.

The subject of assay [9] is human glioma G422 (xenograph in brain). Nature of the assay: Tumor xenographed in mice brain, survival. In kind it is in vivo. As to conditions: 5 mg/kg/time ip × 7 qd. The method, then: as §1
Assay [10] deals with human glioma G-422 (xenograph under skin). Briefly: Xenograph under skin, injection directly into tumor. Type of assay: in vivo, mice. As to conditions: 5 mg ip × 10 qd.
Text: as §2

Values after ≈ are worked out from the molar mass of the structure shown. Where two headings read alike, the source gives them in different places.

Method for A-172 brain tumor: (§4) The MTT assay is a commonly used method in evaluation of cell survival, based on the ability of viable cells to convert MTT, a soluble tetrazolium salt [3-(4,5-dimethylthuazole-2-yl)-2,5 diphenyl tetrazolium bromide], into an insoluble formazan precipitate, which is quantitated by spectrophotometry following solubilization in dimethyl sulfoxide (DMSO).
(§5) The cells were then solubilized in 125 μl of DMSO and absorbance readings were taken using a 96-well Opsys MRI Microplate Reader (ThermoLabsystems; Chantilly, Va.). The amount of MTT dye reduction was calculated based on the difference between absorbance at 570 nm and at 630 nm. Cell viability in treated cells was expressed as the amount of dye reduction relative to that of untreated control cells. The wells which contained only medium and 10 μl of MTT were used as blanks for the plate reader. Three sets of experiments were performed in 8-12 wells for each treatment.
(§6) The cells were then solubilized in 125 μl of DMSO and absorbance readings were taken using a 96-well Opsys MRI Microplate Reader (ThermoLabsystems; Chantilly, Va.). The amount of MTT dye reduction was calculated based on the difference between absorbance at 570 nm and at 630 nm. Cell viability in treated cells was expressed as the amount of dye reduction relative to that of untreated control cells. The wells which contained only medium and 10 μI of MTT were used as blanks for the plate reader. Three sets of experiments were performed in 8-12 wells for each treatment.
Method for A549 lung cancer: as §4
(§7) In brief, carcinoma cells treated with test articles alone, in 96-well tissue culture dishes were incubated with MTT (2 μg/ml) for 4 h. The cells were then solubilized in 125 μl of DMSO and absorbance readings were taken using a 96-well Opsys MRI Microplate Reader (ThermoLabsystems; Chantilly, Va.). The amount of MTT dye reduction was calculated based on the difference between absorbance at 570 nm and at 630 nm. Cell viability in treated cells was expressed as the amount of dye reduction relative to that of untreated control cells. The wells that contained only medium and 10 μl of MTT were used as blanks for the plate reader.
Method for H-460 lung cancer: as §4, §5, §7, §6
Method for STTG1 brain tumor: as §4, §5
Method for U-87 brain tumor: as §4, §5, §6
Method for human glioma cells: as §4, §5

Broadly, the IC50 is the point on the concentration scale where inhibition reaches its midpoint. Consider `C=C[C@]1(C)CC[C@@H]([C@@](C)(O)CO)C[C@H]1C(=C)C` (single isomer, unassigned) [Lr-1], for which the IC50 in the assay on STTG1 brain tumor (STTG1, 24 h) amounted to 108 µg/mL (≈ 453 µM); in the assay with STTG1 brain tumor (STTG1, 48 h), 98 µg/mL (≈ 411 µM); in the assay with STTG1 brain tumor (STTG1, 72 h), 94 µg/mL (≈ 394 µM); in the assay with U-87 brain tumor (U87, 24 h), 98 µg/mL (≈ 411 µM); in the assay with U-87 brain tumor (U87, 48 h) it was 94 µg/mL (≈ 394 µM); with U-87 brain tumor (U87, 72 h) it was 89 µg/mL (≈ 373 µM). Also, the IC50 in the assay with A-172 brain tumor (A172, 24 h) amounted to 106 µg/mL (≈ 445 µM); in the assay with A-172 brain tumor (A172, 48 h), 94 µg/mL (≈ 394 µM); with A-172 brain tumor (A172, 72 h) it was 90 µg/mL (≈ 378 µM).
On to `C=C[C@]1(C)CC[C@@H](C(=C)C=O)C[C@H]1C(=C)C` [(−)-beta-elemenal, (−)-Beta-elemenal], for which the IC50 in the assay with H-460 lung cancer (H460, 24 h) worked out at 27.6 µg/mL (≈ 126 µM); in the assay on H-460 lung cancer (H460, 48 h), 25.5 µg/mL (≈ 117 µM); with H-460 lung cancer (H460, 72 h), 11.0 µg/mL (≈ 50.4 µM); in the assay on A549 lung cancer (A549, 24 h) it was 45.6 µg/mL (≈ 209 µM); in the assay on A549 lung cancer (A549, 48 h), 35.0 µg/mL (≈ 160 µM); in the assay on A549 lung cancer (A549, 72 h), 35.0 µg/mL (≈ 160 µM).
As for `O=P1(N(CCCl)CCCl)NCCCO1` (centres unmarked) [CTX, Cyclophosphamide, reference compound], the “Inhibition Rate %” value with human liver cancer QGY came out at 89.37%; in [1], 87.27%; with human colon cancer HCT-8, 88.11%; in [2], 84.23%; in [3], 87.50%; in the assay with human lung cancer A549, 85.13%. The “Tumor Weight (g) X ± SD” value was 0.22 ± 0.12 g in the assay on human liver cancer QGY; 0.205 ± 0.1 g in [1]; 0.170 ± 0.08 g with human colon cancer HCT-8; 0.205 ± 0.12 g in [2]; 0.15 ± 0.08 g in assay [3]; 0.29 ± 0.07 g in the assay on human lung cancer A549.
As for `C=C[C@]1(C)CC[C@@H]([C@](C)(O)CO)C[C@H]1C(=C)C` [Lr-2, (S)-2-((1R,3S,4S)-3-isopropenyl-4-methyl-4-vinyl-cyclohexyl)-propane-1,2-diol], the IC50 in the assay on human glioma cells (48 hr) is 89.6 µg/mL (≈ 376 µM); in the assay with human glioma cells (72 hr), 90.9 µg/mL (≈ 381 µM); in the assay on STTG1 brain tumor (STTG1, 24 h) it was 112 µg/mL (≈ 470 µM); in the assay with STTG1 brain tumor (STTG1, 48 h) it was 98 µg/mL (≈ 411 µM); with STTG1 brain tumor (STTG1, 72 h) it was 97 µg/mL (≈ 407 µM); in the assay with U-87 brain tumor (U87, 24 h), 90 µg/mL (≈ 378 µM). In addition, the IC50 was determined as 94 µg/mL (≈ 394 µM) in the assay with U-87 brain tumor (U87, 48 h); 87 µg/mL (≈ 365 µM) with U-87 brain tumor (U87, 72 h); 122 µg/mL (≈ 512 µM) in the assay on A-172 brain tumor (A172, 24 h); 96 µg/mL (≈ 403 µM) in the assay with A-172 brain tumor (A172, 48 h); 65 µg/mL (≈ 273 µM) with A-172 brain tumor (A172, 72 h).
`C=C[C@]1(C)CC[C@@H](C(C)=O)C[C@H]1C(=C)C` [Lr-3, 1-((1R,3S,4S)-3-Isopropenyl-4-methyl-4-vinyl-cyclohexyl)-ethanone]: the IC50 with human glioma cells (24 hr) is greater than 200 µg/mL; with human glioma cells (48 hr), greater than 200 µg/mL; in the assay on human glioma cells (72 hr), greater than 200 µg/mL; in the assay with STTG1 brain tumor (STTG1, 24 h), 108 µg/mL (≈ 523 µM); with STTG1 brain tumor (STTG1, 48 h) it was greater than 120 µg/mL; in the assay on STTG1 brain tumor (STTG1, 72 h), 110 µg/mL (≈ 533 µM). The half-maximal inhibitory concentration (IC50) with U-87 brain tumor (U87, 24 h) was 118 µg/mL (≈ 572 µM); with U-87 brain tumor (U87, 48 h) it was greater than 120 µg/mL; in the assay on U-87 brain tumor (U87, 72 h), 120 µg/mL (≈ 582 µM); with A-172 brain tumor (A172, 24 h), greater than 140 µg/mL; in the assay with A-172 brain tumor (A172, 48 h), 134 µg/mL (≈ 649 µM); with A-172 brain tumor (A172, 72 h) it was 106 µg/mL (≈ 514 µM).
On to `O=C1[O][Pt]2([NH][C@@H]3CCCC[C@H]3[NH]2)[O]C1=O` [Oxaliplatin], for which the IC50 was found to be 16.4 ± 4.64 µg/mL in [4] (HCT-15, 4 hr/24 hr × 2); 11.8 ± 3.69 µg/mL in assay [4] (HCT-15, 4 hr/24 hr × 3); 22.0 ± 7.66 µg/mL in [4] (HCT-15, 4 hr/24 hr); 28.4 ± 6.80 µg/mL in assay [4] (HCT-15, 4 hr); 25.7 ± 5.61 µg/mL in assay [4] (HCT-15, 8 hr); 19.3 ± 3.21 µg/mL in [4] (HCT-15, 12 hr). In addition, the IC50 in assay [4] (HCT-15, 48 hr) was determined as 14.5 ± 2.66 µg/mL; in assay [4] (HCT-15, 72 hr), 14.9 ± 3.33 µg/mL; in assay [5] (HCT-116, 4 hr/24 hr × 2), 106 ± 15.7 µg/mL; in [5] (HCT-116, 4 hr/24 hr × 3), 65.7 ± 7.02 µg/mL; in assay [5] (HCT-116, 4 hr/24 hr), 148 ± 13.7 µg/mL; in [5] (HCT-116, 4 hr), 373 ± 69.6 µg/mL. Moreover, the IC50 in assay [5] (HCT-116, 8 hr) was found to be 92.2 ± 15.7 µg/mL; in assay [5] (HCT-116, 12 hr), 74.4 ± 6.28 µg/mL; in [5] (HCT-116, 24 hr), 68.9 ± 7.92 µg/mL; in assay [5] (HCT-116, 48 hr), 64.5 ± 7.89 µg/mL; in assay [5] (HCT-116, 72 hr), 57.2 ± 10.5 µg/mL; in assay [6] (Time 4 hr, n = 8) it was 166 ± 7.51 µg/mL. Further, the IC50 was determined as 21.8 ± 1.06 µg/mL in assay [6] (Time 4 hr/24 hr × 2, n = 8); 9.90 ± 1.01 µg/mL in assay [6] (Time 4 hr/24 hr × 3, n = 8); 29.5 ± 7.05 µg/mL in assay [6] (Time 4 hr/24 hr, n = 8); 124 ± 13.1 µg/mL in [6] (Time 8 hr, n = 8); 69.7 ± 12.7 µg/mL in assay [6] (Time 12 hr, n = 8); 25.2 ± 7.85 µg/mL in [6] (Time 24 hr, n = 8). In addition, the IC50 in assay [6] (Time 48 hr, n = 8) is 20.4 ± 2.14 µg/mL; in assay [6] (Time 72 hr, n = 8), 13.4 ± 2.42 µg/mL.
Turning to `COc1cc([C@@H]2c3cc4c(cc3[C@@H](O[C@@H]3O[C@@H]5CO[C@@H](c6cccs6)O[C@H]5[C@H](O)[C@H]3O)[C@H]3COC(=O)[C@H]23)OCO4)cc(OC)c1O` [VM26, reference compound], the “Average Life Span (day) X± SD” value in assay [7] is 30.8 ± 3.7 days; in assay [9], 21.5 ± 3.4 days. In addition, the “Survival time as % of control (T/C)” value in assay [7] (compared to control) worked out at 196.75%. The “Inhibition Rate %” value came out at 61.08% in [8] and 85.78% in assay [10]. For the same compound, the “Tumor Weight X ± SD” value in [8] (in g (unit assumed)) was found to be 0.72 ± 0.12; in assay [10] (in g (unit assumed)), 0.32 ± 0.12.
Take (−)-Beta-elemene Fluoride: the IC50 with H-460 lung cancer (H460, 24 h) came to 71.3 µg/mL; in the assay on H-460 lung cancer (H460, 48 h) it was 62.5 µg/mL; in the assay with H-460 lung cancer (H460, 72 h) it was 68.6 µg/mL; with A549 lung cancer (A549, 24 h) it was 83.0 µg/mL; in the assay on A549 lung cancer (A549, 48 h) it was 64.5 µg/mL; in the assay on A549 lung cancer (A549, 72 h), 71.4 µg/mL.
